#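 Assay format: 96-well plates, 48-hour exposure. GI50: concentration for 50% inhibition of growth. TGI marks complete inhibition of growth.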
# Experiments:
# Experiment in all cases: DTP human tumour cell line panel, 48 h
# HS 578T breast = system: HS 578T breast
# SK-OV-3 ovarian = system: SK-OV-3 ovarian
# DU-145 prostate = system: DU-145 prostate
# A549 NSCLC = system: A549 NSCLC
# PC-3 prostate = system: PC-3 prostate
# KM12 colon = system: KM12 colon
# NCI-H23 lung = system: NCI-H23 lung
# OVCAR-4 ovarian = system: OVCAR-4 ovarian
# OVCAR-3 ovarian = system: OVCAR-3 ovarian
# OVCAR-8 ovarian = system: OVCAR-8 ovarian
SMILES,GI50 (HS 578T breast) [µM],TGI (HS 578T breast) [µM],GI50 (SK-OV-3 ovarian) [µM],TGI (SK-OV-3 ovarian) [µM],GI50 (DU-145 prostate) [µM],TGI (DU-145 prostate) [µM],GI50 (A549 NSCLC) [µM],TGI (A549 NSCLC) [µM],GI50 (PC-3 prostate) [µM],TGI (PC-3 prostate) [µM],GI50 (KM12 colon) [µM],TGI (KM12 colon) [µM],GI50 (NCI-H23 lung) [µM],TGI (NCI-H23 lung) [µM],GI50 (OVCAR-4 ovarian) [µM],TGI (OVCAR-4 ovarian) [µM],GI50 (OVCAR-3 ovarian) [µM],TGI (OVCAR-3 ovarian) [µM],GI50 (OVCAR-8 ovarian) [µM],TGI (OVCAR-8 ovarian) [µM]
CN1CCC(CNc2cc(C3(C(=O)Nc4cc(C(=O)Nc5ccc(Cl)c(C(F)(F)F)c5)ccc4F)CC3)ncn2)CC1,1.99,6.19,2.17,4.58,3.99,15.8,2.29,5.54,1.04,3.3,2.58,6.91,1.94,4.57,13.6,39.5,2.57,8.44,3.72,14.9
O=C(Nc1ccccc1)N(C1=NCC(CI)S1)c1ccc(F)c(F)c1 (stereo not given),,> 100,,> 100,,> 100,,> 100,,> 100,,> 100,,> 100,,> 100,,> 100,,> 100
CCn1nc(C)c2c1C(=O)NCC(=O)N2,,> 100,,> 100,,> 100,,> 100,,> 100,,> 100,,> 100,,> 100,,> 100,,> 100
C=CCOC(=O)N1c2ccc(O[Si](C)(C)C(C)(C)C)cc2[C@@]23O[C@@]24[C@@H]1C#C/C=C\C#C[C@]3(O)C(OC)(OC)C[C@@H]4C,,> 89.1,,> 100,,> 100,,> 100,,> 100,,> 100,,> 100,,> 100,,> 100,,> 100
Cc1ccc(S(=O)(=O)NC(=O)Nc2nnc(S(N)(=O)=O)s2)cc1,,> 100,,> 100,,> 100,,> 100,,> 100,,> 100,,> 100,,> 100,,> 100,,> 100
O=C(O)CC(Cc1ccccc1Cl)C(=O)O (stereo not given),,> 100,,> 100,,> 100,,> 100,,> 100,,> 100,,> 100,,> 100,,> 100,,> 100
O=c1[nH]c(Nc2ccccc2)nc2c1ncn2CC(O)CSCCO (stereo not given),,> 100,,> 100,,> 100,,> 100,,> 100,,> 100,,> 100,,> 100,,> 100,,> 100
Cc1ccc(Nc2nc3[nH]ccc3c(=O)[nH]2)cc1,,> 100,,> 100,,> 100,,> 100,,> 100,,> 100,,> 100,,> 100,,> 100,,> 100
Oc1cc(Cc2ccccc2)c(Cc2ccccc2)cc1O,,> 10,,> 10,,> 10,,> 10,,> 10,,> 10,,> 10,,> 10,,> 10,,> 10
NC(=O)CNC(=O)[C@@H]1CC(OCCC(=O)O)CN1C(=O)C1CCCN1C(=O)OCc1ccccc1 (stereo not given in full),,> 100,,> 100,,> 100,,> 100,,> 100,,> 100,,> 100,,> 100,,> 100,,> 100
O=C(Nc1ccccc1F)c1cc2ccc(O)cc2oc1=Nc1cccc(F)c1,,84.4,,> 100,,40.5,,33.7,,48,,44.7,,5.36,,53.6,,33.1,,23.8
CC(C)/C(Cl)=N/OC(=O)Nc1ccc(Br)cc1,,58.4,,30.3,,27.4,,39.5,,26.7,,26.6,,26.5,,31.8,,9.5,,27.8
CN(C)CC(O)c1ccc(Cl)c2ccccc12 (stereo not given),,> 100,,> 100,,> 100,,> 100,,> 72.3,,> 100,,> 100,,> 100,,> 100,,> 100
N#CN1C2CCC1CC(=O)C2,,> 100,,> 100,,> 100,,> 100,,> 100,,> 100,,> 100,,> 100,,> 100,,> 100
CC(C)(C)c1ccc(OCCOc2ccc(C(C)(C)C)cc2N)c(N)c1,,> 100,,> 100,,> 100,,> 100,,> 100,,> 100,,> 100,,> 100,,> 100,,> 100
O=C1c2cccc([N+](=O)[O-])c2C(=O)N1Cc1ccccc1,,> 100,,> 100,,> 100,,> 100,,> 100,,> 100,,> 100,,> 100,,> 100,,> 100
COc1cc2c(c(O)c1O)C(=O)C1CCC(=O)N1C2c1cccc2ccccc12 (stereo not given),,> 50,,> 50,,> 50,,> 50,,> 50,,> 50,,> 50,,> 50,,> 50,,> 50
Fc1ccc(C(OCCN2CCN(CCCc3ccccc3)CC2)c2ccc(F)cc2)cc1,,10.1,,18.9,,19.5,,14,,12,,17.1,,15.3,,15.8,,15.9,,13
[N-]=[N+]=Nc1c(Cc2ccccc2)c(Cl)nc2ccccc12,,54.4,,> 100,,> 100,,> 100,,> 100,,61.2,,> 100,,> 100,,38.4,,46.5
CC(N=NNc1ccc(-c2nc3ccccc3[nH]2)cc1)C(=O)O (stereo not given),,> 100,,> 100,,> 100,,> 100,,> 100,,> 100,,> 100,,> 100,,54.7,,> 100
